The results in this text go back to the Kinase Knowledgebase extract (Sharma et al. 2016).

Molecules are shown by their SMILES. pIC50: −log10 of the molar value.

The target of this test is PIK3CA (human) (UniProt P42336). Description: Inhibition of PIK3CA Kinase Activity.
Sequence of PIK3CA (human) (P42336 whole entry, looked up): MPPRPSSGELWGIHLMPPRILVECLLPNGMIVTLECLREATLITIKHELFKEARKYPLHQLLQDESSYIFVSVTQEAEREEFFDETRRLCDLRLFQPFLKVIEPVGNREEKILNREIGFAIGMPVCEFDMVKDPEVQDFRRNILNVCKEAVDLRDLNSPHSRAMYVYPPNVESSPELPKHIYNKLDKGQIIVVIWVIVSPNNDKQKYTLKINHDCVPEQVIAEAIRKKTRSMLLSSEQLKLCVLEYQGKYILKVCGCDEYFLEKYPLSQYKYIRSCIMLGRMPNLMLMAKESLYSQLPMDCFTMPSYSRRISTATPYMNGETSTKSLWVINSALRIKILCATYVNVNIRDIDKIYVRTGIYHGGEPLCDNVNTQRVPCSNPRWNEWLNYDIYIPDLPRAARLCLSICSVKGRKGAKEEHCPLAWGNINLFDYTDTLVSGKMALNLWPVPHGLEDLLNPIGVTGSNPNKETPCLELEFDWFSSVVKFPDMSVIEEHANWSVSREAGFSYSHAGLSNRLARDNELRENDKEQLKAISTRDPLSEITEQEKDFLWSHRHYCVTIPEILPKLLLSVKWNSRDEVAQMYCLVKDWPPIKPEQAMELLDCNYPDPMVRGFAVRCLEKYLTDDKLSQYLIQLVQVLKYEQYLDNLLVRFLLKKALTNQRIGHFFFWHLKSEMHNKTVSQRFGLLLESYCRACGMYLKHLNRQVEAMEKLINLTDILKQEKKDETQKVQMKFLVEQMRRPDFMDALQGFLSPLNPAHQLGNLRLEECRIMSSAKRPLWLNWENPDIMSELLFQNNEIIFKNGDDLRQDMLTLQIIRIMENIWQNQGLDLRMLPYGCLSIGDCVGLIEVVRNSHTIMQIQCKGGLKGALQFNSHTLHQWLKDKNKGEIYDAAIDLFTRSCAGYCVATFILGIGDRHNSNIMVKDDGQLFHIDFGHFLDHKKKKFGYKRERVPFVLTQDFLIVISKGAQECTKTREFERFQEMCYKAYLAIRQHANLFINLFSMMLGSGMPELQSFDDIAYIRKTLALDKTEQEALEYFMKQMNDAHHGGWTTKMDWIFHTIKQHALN

In general, pIC50 refers to the IC50 on a negative log10 scale, so that one unit is a factor of ten. A low value points to a high IC50. In the case of `CC1(C)CCc2ncnc(N3CCOc4ccc(-c5cnc(N)c(S(=O)(=O)NC(C)(C)CO)c5)cc4C3)c2C1`, the negative logarithm of the IC50 (pIC50) was 6.60 to 7.30. The figure for `CCNc1nc2ccc(-c3ccc4c(c3)CN(c3nc(C)nc5cc(OC)c(OC)cc35)CCO4)cc2[nH]1` is 7.30 to 8.00. `CC[C@H]1CCc2c(nc(C)nc2N2CCOc3ccc(-c4cnc5nc(C)[nH]c5c4)cc3C2)C1` showed a pIC50 of at least 8.00. Then `CN(C)Cc1nc2c(c(N3CCOc4ccc(-c5ccc(Cl)c(C(N)=O)c5)cc4C3)n1)CC(C)(C)CC2`, with 6.00 to 6.60; and `CC1(C)CCc2ncnc(N3CCOc4ccc(-c5cnc(N)c(S(=O)(=O)N6CC[C@@H](O)C6)c5)cc4C3)c2C1`, with 7.30 to 8.00; and `CCc1nc2cc(-c3ccc4c(c3)CN(c3ncnc5c3CC(C)(C)CC5)CCO4)cnc2[nH]1`, with 7.30 to 8.00.

As to `CN(C)C1CN(S(=O)(=O)c2cc(-c3ccc4c(c3)CN(c3ncnc5c3CC(C)(C)CC5)CCO4)cnc2N)C1`, the negative logarithm of the IC50 (pIC50) is 6.60 to 7.30. Then `CC(O)c1nc2cc(-c3ccc4c(c3)CN(c3ncnc5c3CC(C)(C)CC5)CCO4)cnc2[nH]1` (stereo not drawn), with 6.60 to 7.30; and `CCNc1nc2ccc(-c3ccc4c(c3)CN(c3cc(Nc5ccc(OC)cc5)ncn3)CCO4)cc2[nH]1`, with 6.00 to 6.60. As to `Cc1nc2ncc(-c3ccc4c(c3)CN(c3ncnc(NC(C)C)c3C)CCO4)cc2[nH]1`, the pIC50 is 7.30 to 8.00. The figure for `Cc1nc2cc(-c3ccc4c(c3)CN(c3nc([C@H]5CCCN5)nc5c3CC(C)(C)CC5)CCO4)cnc2[nH]1` is at least 8.00; for `CCc1ncnc(N2CCOc3ccc(-c4ccc5nc(C)[nH]c5c4)cc3C2)c1Cc1ccccc1` it is 7.30 to 8.00.

`CC1(C)CCc2ncnc(N3CCOc4ccc(-c5cnc(N)c(S(=O)(=O)NC6CCNCC6)c5)cc4C3)c2C1` gave a negative logarithm of the IC50 (pIC50) of 6.60 to 7.30.

In the case of `CC(C)(N)CCNS(=O)(=O)c1cc(-c2ccc3c(c2)CN(c2ncnc4c2CC(C)(C)CC4)CCO3)cnc1N`, the pIC50 is 7.30 to 8.00. Compound `CCNc1nc(N2CCOc3ccc(-c4ccc5nc(NCC)[nH]c5c4)cc3C2)c2ccccc2n1` had a negative logarithm of the IC50 (pIC50) of 6.60 to 7.30. Then `Cc1c(NCCC2CCCN2C)ncnc1N1CCOc2ccc(-c3cnc4nc(C5CC5)[nH]c4c3)cc2C1` (stereo not drawn), with 6.60 to 7.30; and `CNc1ncnc(N2CCOc3ccc(-c4cnc5nc(C)[nH]c5c4)cc3C2)c1C`, with 7.30 to 8.00; and `COC(=O)Nc1nc2ccc(-c3ccc4c(c3)CN(c3ncnc5ccc(OC)cc35)CCO4)cc2[nH]1`, with 7.30 to 8.00. Compound `Cc1nc2ccc(-c3ccc4c(c3)CN(c3ncnc5c3CCC(C)C5)CCO4)cc2[nH]1` (stereo not drawn) showed a pIC50 of 7.30 to 8.00. Then `CC1(C)CCc2ncnc(N3CCOc4ccc(-c5cnc(N)c(S(=O)(=O)N6CCC6)c5)cc4C3)c2C1`, with 7.30 to 8.00; and `CC1(C)CCc2ncnc(N3CCOc4ccc(-c5ccc(-c6ncc[nH]6)cc5)cc4C3)c2C1`, with 7.30 to 8.00; and `CC1=C(C)C(C)(C)Cc2c1ncnc2N1CCOc2ccc(-c3cnc4nc(C)[nH]c4c3)cc2C1`, with 7.30 to 8.00.

With `CC1(C)CCc2ncnc(N3CCOc4ccc(-c5cnc(N)c(S(=O)(=O)NCCCN)c5)cc4C3)c2C1`, the pIC50 was at least 8.00. `COCCNCc1nc2c(c(N3CCOc4ccc(-c5cnc6nc(C)[nH]c6c5)cc4C3)n1)CC(C)(C)CC2` had a pIC50 of 7.30 to 8.00. Then `Cc1nc2cc(-c3ccc4c(c3)CN(c3nc(C(C)N(C)C)nc5c3CC(C)(C)CC5)CCO4)cnc2[nH]1` (stereo not drawn), with 7.30 to 8.00; and `COc1ccc2ncnc(N3CCOc4ccc(-c5cnc6nc(N)[nH]c6c5)cc4C3)c2c1`, with at least 8.00; and `CC1(C)CCc2ncnc(N3CCOc4ccc(-c5cnc(N)c(S(=O)(=O)NCC6CNC6)c5)cc4C3)c2C1`, with 7.30 to 8.00.

For the compound `Cc1nc2ccc(-c3ccc4c(c3)CN(c3nc(CNC5CC5)nc5c3CC(C)(C)CC5)CCO4)cc2[nH]1`, the pIC50 is 7.30 to 8.00. In turn, `CNS(=O)(=O)c1cc(-c2ccc3c(c2)CN(c2ncnc(C)c2Cc2ccc(F)cc2)CCO3)cnc1N` showed a negative-log IC50 (pIC50) of 6.60 to 7.30.

Consider `Cc1nc2ccc(-c3ccc4c(c3)CN(c3ncnc(C)c3Cc3ccccc3)CCO4)cc2[nH]1`, for which the pIC50 is 7.30 to 8.00. Then `CN(C)Cc1nc2c(c(N3CCOc4ccc(-c5ccc(-c6ncc[nH]6)cc5)cc4C3)n1)CC(C)(C)CC2`, with at least 8.00. Then `Cc1nc(CN(C)C)nc(N2CCOc3ccc(-c4ccc5[nH]c(C(F)F)nc5c4)cc3C2)c1C(C)C`, with 7.30 to 8.00; and `Cc1nc(C)c(Cc2ccc(F)cc2)c(N2CCOc3ccc(-c4ccc5nc(C)[nH]c5c4)cc3C2)n1`, with 7.30 to 8.00.

As to `CN1CCC[C@H](CNS(=O)(=O)c2cc(-c3ccc4c(c3)CN(c3ncnc5c3CC(C)(C)CC5)CCO4)cnc2N)C1`, the pIC50 was 6.60 to 7.30.

The compound `Cc1ncnc(N2CCOc3ccc(-c4cnc(N)nc4)cc3C2)c1Cc1ccc(F)cc1` showed a pIC50 of 6.60 to 7.30. Then `Nc1nc2ncc(-c3ccc4c(c3)CN(c3ncnc5cccnc35)CCO4)cc2[nH]1`, with 7.30 to 8.00; and `Nc1nc2ncc(-c3ccc4c(c3)CN(c3ncnc5ccc(F)cc35)CCO4)cc2[nH]1`, with at least 8.00; and `Cc1nc2ncc(-c3ccc4c(c3)CN(c3nc(CN5CCC(F)(F)C5)nc5c3CC(C)(C)CC5)CCO4)cc2[nH]1`, with 6.60 to 7.30. Then `COCCOc1cc(-c2ccc3c(c2)CN(c2nc(CN(C)C)nc4c2CC(C)(C)CC4)CCO3)ccc1OC`, with 6.60 to 7.30; and `CCCc1nc2cc(-c3ccc4c(c3)CN(c3ncnc5c3CC(C)(C)CC5)CCO4)cnc2[nH]1`, with 6.60 to 7.30; and `CNCc1nc2ncc(-c3ccc4c(c3)CN(c3ncnc5c3CC(C)(C)CC5)CCO4)cc2[nH]1`, with 6.60 to 7.30. Then `CCNc1nc2ccc(-c3ccc4c(c3)CN(c3ccnc5cc(OC)c(OC)cc35)CCO4)cc2[nH]1`, with 7.30 to 8.00; and `CNc1ncc(-c2ccc3c(c2)CN(c2ncnc4c2CC(C)(C)CC4)CCO3)cc1S(=O)(=O)NCCO`, with 7.30 to 8.00; and `Cc1nc2ccc(-c3ccc4c(c3)CN(c3ncnc5cc(Br)ccc35)CCO4)cc2[nH]1`, with 6.60 to 7.30. The compound `CC1(C)CCc2ncnc(N3CCOc4ccc(-c5cnc(N)c(S(=O)(=O)CCCO)c5)cc4C3)c2C1` gave a pIC50 of 7.30 to 8.00. Compound `CCNC(=O)c1ccc(-c2ccc3c(c2)CN(c2ccnc4ccccc24)CCO3)cc1` gave a negative-log IC50 (pIC50) of 6.00 to 6.60. Consider `Nc1nc2ncc(-c3ccc4c(c3)CN(c3ncnc5ccc(Br)cc35)CCO4)cc2[nH]1`, for which the pIC50 was at least 8.00. Then `COc1cccc2c(N3CCOc4ccc(-c5ccc6nc(C)[nH]c6c5)cc4C3)ncnc12`, with 7.30 to 8.00. For `Cc1nc2ccc(-c3ccc4c(c3)CN(c3ncnc5ccc(S(C)(=O)=O)cc35)CCO4)cc2[nH]1`, the pIC50 is 6.00 to 6.60. Then `Cc1nc(C)c(CC2CC2)c(N2CCOc3ccc(-c4cnc5nc(C)[nH]c5c4)cc3C2)n1`, with 7.30 to 8.00. Then `Cc1nc2ncc(-c3ccc4c(c3)CN(c3ncnc5c3CCC(C(F)(F)F)C5)CCO4)cc2[nH]1` (stereo not drawn), with 6.60 to 7.30. For `Cc1nc(N)nc(N2CCOc3ccc(-c4ccc5[nH]cnc5c4)cc3C2)c1Cc1ccc(F)cc1`, the pIC50 is at least 8.00. Then `COCCOc1ccc2ncnc(N3CCOc4ccc(-c5ccc6nc(C)[nH]c6c5)cc4C3)c2c1`, with 6.00 to 6.60; and `COc1cc2ncnc(N3CCOc4ccc(-c5ccc6nc(C)[nH]c6c5)cc4C3)c2cc1Cl`, with 7.30 to 8.00. The figure for `COc1cc2ncnc(N3CCOc4ccc(-c5ccc6nc(C)[nH]c6c5)cc4C3)c2cc1I` is 7.30 to 8.00.

For `Cc1nc2ccc(-c3ccc4c(c3)CN(c3ncnc5cc(Cl)c(Br)cc35)CCO4)cc2[nH]1`, the negative-log IC50 (pIC50) is 6.00 to 6.60. Then `Cc1nc2ccc(-c3ccc4c(c3)CN(c3ncnc5ccc(OCCCN(C)C)cc35)CCO4)cc2[nH]1`, with 6.00 to 6.60; and `CN(C)Cc1nc2c(c(N3CCOc4ccc(-c5cnc6sc(N)nc6c5)cc4C3)n1)CC(C)(C)CC2`, with at least 8.00.

For the compound `CCNc1nc2ccc(-c3ccc4c(c3)CN(c3nc(C)nc5cc(F)ccc35)CCO4)cc2[nH]1`, the pIC50 was at least 8.00. Then `CN(C)Cc1nc2ncc(-c3ccc4c(c3)CN(c3ncnc5c3CC(C)(C)CC5)CCO4)cc2[nH]1`, with 6.00 to 6.60. The figure for `COc1c(OCC(C)C)ccc2c(N3CCOc4ccc(-c5ccc6nc(C)[nH]c6c5)cc4C3)ncnc12` is 6.60 to 7.30; for `Cc1nc2ncc(-c3ccc4c(c3)CN(c3ncnc5c3CCC(C)C5)CCO4)cc2[nH]1` (stereo not drawn) it is 7.30 to 8.00; for `COc1cncc(-c2ccc3c(c2)CN(c2ncnc4c2CC(C)(C)CC4)CCO3)c1` it is 6.00 to 6.60. The figure for `CNS(=O)(=O)c1cc(-c2ccc3c(c2)CN(c2ncnc4c2CC(C)(C)CC4)CCO3)cnc1N` is at least 8.00. The compound `CCOC(=O)c1nc(N2CCOc3ccc(-c4ccc5nc(C)[nH]c5c4)cc3C2)c2ccccc2n1` showed a pIC50 of 6.60 to 7.30.

The compound `CCc1nc2ccc(-c3ccc4c(c3)CN(c3ncnc5c3CC(C)(C)CC5)CCO4)cc2[nH]1` showed a negative-log IC50 (pIC50) of 6.60 to 7.30. The figure for `CC1(C)CCc2ncnc(N3CCOc4ccc(-c5cnc(N)c(S(=O)(=O)N6CC(O)(CO)C6)c5)cc4C3)c2C1` is 7.30 to 8.00; for `CCCc1c(C)nc(CN(C)C)nc1N1CCOc2ccc(-c3ccc4nc(C)[nH]c4c3)cc2C1` it is 7.30 to 8.00.

`CC1(C)CCc2ncnc(N3CCOc4ccc(-c5cnc(N)c(S(=O)(=O)CC(O)CO)c5)cc4C3)c2C1` (stereo not drawn) had a pIC50 of 7.30 to 8.00. `COc1c(Cl)cc2c(N3CCOc4ccc(-c5ccc6nc(C)[nH]c6c5)cc4C3)ncnc2c1OC` showed a pIC50 of 6.60 to 7.30. Then `CNC(=O)c1ccc(-c2ccc3c(c2)CN(c2ccnc4ccccc24)CCO3)cc1`, with 6.60 to 7.30; and `Cc1nc2c(c(N3CCOc4ccc(-c5cnc6sc(N)nc6c5)cc4C3)n1)CC(C)(C)CC2`, with 7.30 to 8.00. Then `Cc1nc2ccc(-c3ccc4c(c3)CN(c3ncnc5c(F)cccc35)CCO4)cc2[nH]1`, with 6.60 to 7.30; and `Cc1nc2ncc(-c3ccc4c(c3)CN(c3nc(CN(C)C)nc(C)c3CC3CC3)CCO4)cc2[nH]1`, with at least 8.00; and `CC1(C)CCc2ncnc(N3CCOc4ccc(-c5cnc(N)c(S(=O)(=O)N6CC(O)C6)c5)cc4C3)c2C1`, with at least 8.00.

In the case of `CC1(C)CCc2ncnc(N3CCOc4ccc(-c5cnc(N)c(S(=O)(=O)NCC6(N)CC6)c5)cc4C3)c2C1`, the pIC50 was 6.60 to 7.30. The figure for `Cc1nc2ncc(-c3ccc4c(c3)CN(c3nc(CN5CCCCC5)nc5c3CC(C)(C)CC5)CCO4)cc2[nH]1` is at least 8.00; for `Cc1nc(C)c(CC2CC2)c(N2CCOc3ccc(-c4cnc5nc(C6CC6)[nH]c5c4)cc3C2)n1` it is 7.30 to 8.00.
